This note sets out measurements from patent publication US20040038369A1, “Airway-specific trypsin-like enzymes and method of using the same” (priority 2000, published 2004).

The test system of this assay is EGF on surface of H292 cell membrane. The assay is described as follows: Surface antigen analysis (FACS) of EGF on NCI-H292 cell membrane. The assay is classed as cell-based, human. How it is done: NCI-H292 cells (purchased from ATCC) were cultured on a 10 cm dish in 10% FCS-containing RPMI-1640 until to reach a confluent state, subjected to the replacement of the culture medium by RPMI-1640 containing 0.1% of BSA, and further cultured for 24 hours. The cultured cells were washed with PBS, treated and floated in PBS containing 5 mM of EDTA at 37° C. for five minutes, and then suspended in 0.1%BSA-containing RPMI-1640 in a density of 1.0×10^7 cells/mL.
The above-described cell suspension and 0.1% BSA-containing RPMI-1640 containing HAST in a double concentration (600 mU/mL) were mixed with each other in equivalent amounts, respectively, and reacted with each other at 37° C. for 30 minutes (final cell concentration: 5.0×10^6 cells/mL, final HAST concentration: 300 mU/mL). The reaction solution was mixed with ice-cooled 1% FCS-containing PBS in a volume of 5 times that of the reaction solution to stop the reaction, and the treated solution was then supplied for a surface antigen analysis.
The cells subjected to the prescribed treatments were suspended in 1% FCS-containing PBS in a density of 1.0×10^7 cells/mL. 100 μL of the prepared cell suspension was mixed with a primary antigen (EGF back ground dyeing: 1 μg of normal mouse IgG1 (produced by R & D Corp.), EGF dyeing: 1 μg of an anti-EGF mouse monoclonal antibody (produced by R & D Corp.), HB-EGF back ground dyeing: free from the primary antigen, HB-EGF dyeing: 2 μg of an anti-HB-EGF goat polyclonal antibody (produced by R & D Corp.)) and reacted on ice for 30 minutes. The reaction product was once washed with 5 mL of 1% FCS-containing PBS, mixed with 2 μg of a secondary antigen (EGF back ground dyeing and EGF dyeing: FITC conjugated F(ab′)2 fragment to mouse IgG (produced by Dako Corp.), HB-EGF back ground dyeing and HB-EGF dyeing: Swine Anti-Goat Ig's Fluorescein Conjugate (produced by KPL Corp.)), and then reacted on ice for 30 minutes. The reaction solution was once washed with 5 mL of 1% FCS-containing PBS, and then mixed with Cell Fix (produced by Becton Dickinson Corp.) to immobilize the cells. The expression of the surface antigen was assayed with FACS Calibur (produced by Becton Dickinson Corp.) and analyzed with Cell Quest (produced by Becton Dickinson Corp.). Average fluorescence intensities were shown in the next table as the indicators of expression intensities.
HAST (600 mU/mL) was reacted with leupeptin (10 μM) or BB1101 (5 μM) in 0.1% BSA-containing RPMI-1640 on ice for 30 minutes, and the reaction solution was mixed with the equivalent amount of a cell suspension preliminarily treated with leupeptin (10 μM) or BB1101 (5 μM) at 37° C. for 30 minutes, and further treated at 37° C. for 30 minutes (final HAST concentration: 300 mU/mL, final leupeptin concentration: 10 μM, final BB1101 concentration: 5 μM, final cell concentration: 5.0×10^6 cells/mL). The reaction solution was mixed with ice-cooled 1% FCS-containing PBS in an amount of five times that of the reaction solution to stop the reaction, and then supplied for the surface antigen analysis.
The cells subjected to the prescribed treatments were suspended in 1% FCS-containing PBS in a density of 1.0×10^7 cells/mL. […]

Regarding “HAST: human airway-specific trypsin-like enzyme; propeptide moiety bound to trypsin-like protein moiety via a disulfide bond”, the “cleavage of proEGF on the surfaces of the cell membranes” value (HAST 300 mU/mL) is reported as “cleaved”. Further, the “EGF expression intensity on the surfaces of the cell membranes (average fluorescence intensity)” value reads like this: (HAST 300 mU/mL, 37° C., 30 minutes, Back ground 4.62, PBS 7.26) 4.88; (inhibitor experiment, HAST 300 mU/mL alone, Back ground 8.44, PBS 10.79) 8.33.
